Tests used:
Assay type in all cases: cell-based, human
KM12 = test: NCI60 one-dose screen, KM12; conditions: KM12 (Colon Cancer); NCI 60 one-dose, 10^-5 M
Procedure: (§1) Anti-cancer activity screening of all compounds was performed by the NCI Developmental Therapeutics Program (DTP) through their NCI60 screening initiative. Assay details can be found at the website dtp.cancer.gov/discovery_development/nci-60/methodology.htm. Information from this website is reproduced here for convenience.
(§2) As of early 2007 all compounds submitted to the NCI 60 Cell screen are tested initially at a single high dose (10^-5 M) in the full NCI 60 cell panel. Only compounds which satisfy pre-determined threshold inhibition criteria in a minimum number of cell lines will progress to the full 5-dose assay. The threshold inhibition criteria for progression to the 5-dose screen was selected to efficiently capture compounds with anti-proliferative activity based on careful analysis of historical DTP screening data. The threshold criteria may be updated as additional data becomes available.
(§3) The One-dose data will be reported as a mean graph of the percent growth of treated cells and will be similar in appearance to mean graphs from the 5-dose assay. […]
(§4) Following drug addition, the plates are incubated for an additional 48 h at 37° C., 5% CO2, 95% air, and 100% relative humidity. […] Bound stain is subsequently solubilized with 10 mM trizma base, and the absorbance is read on an automated plate reader at a wavelength of 515 nm. […]

CAKI-1 = test: NCI60 one-dose screen, CAKI-1; conditions: CAKI-1 (Renal Cancer); NCI 60 one-dose, 10^-5 M
Procedure: as §1, §2, §3, §4

SW-620 = test: NCI60 one-dose screen, SW-620; conditions: SW-620 (Colon Cancer); NCI 60 one-dose, 10^-5 M
Procedure: as §1, §2, §3, §4

SK-OV-3 = test: NCI60 one-dose screen, SK-OV-3; conditions: SK-OV-3 (Ovarian Cancer); NCI 60 one-dose, 10^-5 M
Procedure: as §1, §2, §3, §4

OVCAR-3 = test: NCI60 one-dose screen, OVCAR-3; conditions: OVCAR-3 (Ovarian Cancer); NCI 60 one-dose, 10^-5 M
Procedure: as §1, §2, §3, §4

MDA-MB-231/ATCC = test: NCI60 one-dose screen, MDA-MB-231; conditions: MDA-MB-231/ATCC (Breast Cancer); NCI 60 one-dose, 10^-5 M
Procedure: as §1, §2, §3, §4

MCF7 = test: NCI60 one-dose screen, MCF7; conditions: MCF7 (Breast Cancer); NCI 60 one-dose, 10^-5 M
Procedure: as §1, §2, §3, §4

UACC-62 = test: NCI60 one-dose screen, UACC-62; conditions: UACC-62 (Melanoma); NCI 60 one-dose, 10^-5 M
Procedure: as §1, §2, §3, §4

786-0 = test: NCI60 one-dose screen, 786-0; conditions: 786-0 (Renal Cancer); NCI 60 one-dose, 10^-5 M
Procedure: as §1, §2, §3, §4

NCI-H226 = test: NCI60 one-dose screen, NCI-H226; conditions: NCI-H226 (Non-Small Cell Lung Cancer); NCI 60 one-dose, 10^-5 M
Procedure: as §1, §2, §3, §4

NCI-H460 = test: NCI60 one-dose screen, NCI-H460; conditions: NCI-H460 (Non-Small Cell Lung Cancer); NCI 60 one-dose, 10^-5 M
Procedure: as §1, §2, §3, §4

BT-549 = test: NCI60 one-dose screen, BT-549; conditions: BT-549 (Breast Cancer); NCI 60 one-dose, 10^-5 M
Procedure: as §1, §2, §3, §4

SN12C = test: NCI60 one-dose screen, SN12C; conditions: SN12C (Renal Cancer); NCI 60 one-dose, 10^-5 M
Procedure: as §1, §2, §3, §4

SR = test: NCI60 one-dose screen, SR; conditions: SR (Leukemia); NCI 60 one-dose, 10^-5 M
Procedure: as §1, §2, §3, §4

RPMI-8226 = test: NCI60 one-dose screen, RPMI-8226; conditions: RPMI-8226 (Leukemia); NCI 60 one-dose, 10^-5 M
Procedure: as §1, §2, §3, §4

HCT-15 = test: NCI60 one-dose screen, HCT-15; conditions: HCT-15 (Colon Cancer); NCI 60 one-dose, 10^-5 M
Procedure: as §1, §2, §3, §4

MDA-MB-435 = test: NCI60 one-dose screen, MDA-MB-435; conditions: MDA-MB-435 (Melanoma); NCI 60 one-dose, 10^-5 M
Procedure: as §1, §2, §3, §4

NCI60 Cell Line Panel = test: NCI60 one-dose screen, whole panel statistics; conditions: mean over the NCI60 cell line panel, 10^-5 M
Procedure: as §1, §2, §3, §4

SMILES | Growth Percent (KM12) | Growth Percent (CAKI-1) | Growth Percent (SW-620) | Growth Percent (SK-OV-3) | Growth Percent (OVCAR-3) | Growth Percent (MDA-MB-231/ATCC) | Growth Percent (MCF7) | Growth Percent (UACC-62) | Growth Percent (786-0) | Growth Percent (NCI-H226) | Growth Percent (NCI-H460) | Growth Percent (BT-549) | Growth Percent (SN12C) | Growth Percent (SR) | Growth Percent (RPMI-8226) | Growth Percent (HCT-15) | Growth Percent (MDA-MB-435) | Growth Percent, Mean (NCI60 Cell Line Panel)
CC(=O)N1c2ccccc2NC2=C(C(=O)N(C)C2(C)C)C1c1ccccc1 (stereo not drawn) [NUCC-60872] | 19.79% | 71.91% | 24.24% | 55.42% | 18.09% | 63.32% | 16.41% | 32.33% | 80.09% | 91.06% | 21.87% | 69.46% | 40.74% | 16.70% | 12.61% | 93.83% | −67.83% | 41.43%
CC(=O)N1c2ccccc2NC2=C(C(=O)N(Cc3ccccc3)C2(C)C)C1c1ccco1 (stereo not drawn) [NUCC-608455] | 14.83% | 42.97% | 21.68% | 22.71% | −7.65% | 9.25% | 15.26% | 21.25% | 21.45% | 65.66% | 4.83% | 47.62% | 35.91% | 23.29% | 23.43% | 15.65% | −56.24% | 23.48%
